# Values quoted from earlier work in patent publication US12649758B2, “Industrial method for simultaneously preparing Stevia rebaudiana chlorogenic acid and stevioside” (Chenguang Biotech Group Co., Ltd., priority 2018, dated 2026).
smiles,measurement,value
"C=C1C[C@@]23CC[C@H]4[C@@](C)(CCC[C@@]4(C)C(=O)O[C@@H]4O[C@H](CO)[C@@H](O)[C@H](O)[C@H]4O)[C@@H]2CC[C@]1(O[C@@H]1O[C@H](CO)[C@@H](O)[C@H](O)[C@H]1O[C@@H]1O[C@H](CO)[C@@H](O)[C@H](O)[C@H]1O)C3 [Stevioside, stevioside]",sweetness relative to sucrose,300 to 500 times of sucrose
